Assay results reported in the NIST ThermoML archive (doi:10.1021/je4002009).

Test: mn = molality of the nth substance listed, in mol/kg
Conditions: 101 kPa, Liquid; for viscosity: Capillary tube (Ostwald / Ubbelohde) method

Cc1ccc(S(=O)(=O)O)cc1.O=C1CCCN1C1CCCCC1 [1-cyclohexyl-2-pyrrolidinone 4-methylbenzenesulfonate] + O
Conditions	mass density, 298.15 K [kg/m3]	mass density, 303.15 K [kg/m3]	mass density, 308.15 K [kg/m3]	viscosity, 298.15 K [mPa·s]	viscosity, 303.15 K [mPa·s]	viscosity, 308.15 K [mPa·s]
m1 = 0.0502	1000.25	998.76	997.02	0.9563	0.8427	0.7524
m1 = 0.1025	1003.22	1001.6	999.85	0.9991	0.8853	0.7957
m1 = 0.1513	1005.86	1004.3	1002.49	1.035	0.9171	0.8304
m1 = 0.1991	1008.58	1006.95	1005.1	1.082	0.9514	0.8636
m1 = 0.2492	1011.41	1009.76	1007.84	1.134	0.9897	0.8957
m1 = 0.3015	1014.32	1012.57	1010.6	1.186	1.036	0.9333
m1 = 0.3524	1017.03	1015.23	1013.12	1.24	1.08	0.9639
m1 = 0.4007	1019.46	1017.48	1015.41	1.289	1.123	0.9982
m1 = 0.4491	1021.74	1019.79	1017.58	1.337	1.165	1.029
m1 = 0.4976	1023.93	1021.92	1019.7	1.383	1.207	1.066
m1 = 0.5503	1026.3	1024.26	1021.89	1.435	1.254	1.104
m1 = 0.6019	1028.47	1026.37	1023.96	1.485	1.3	1.145
m1 = 0.6492	1030.43	1028.29	1025.85	1.537	1.344	1.184
m1 = 0.7521	1034.7	1032.51	1030.01	1.648	1.44	1.272
m1 = 0.8074	1037	1034.74	1032.32	1.715	1.497	1.323
m1 = 0.9012	1040.82	1038.55	1036.16	1.829	1.596	1.412
m1 = 1.002	1044.83	1042.52	1040.19	1.966	1.7	1.506
m1 = 1.199	1051.36	1048.95	1046.4	2.233	1.907	1.688

O=C1CCC[NH+]1C1CCCCC1.O=S(=O)([O-])c1ccccc1 [1-cyclohexyl-2-oxopyrrolidin-1-ium benzenesulfonate] + O
Conditions	mass density, 298.15 K [kg/m3]	mass density, 303.15 K [kg/m3]	mass density, 308.15 K [kg/m3]	viscosity, 298.15 K [mPa·s]	viscosity, 303.15 K [mPa·s]	viscosity, 308.15 K [mPa·s]
m1 = 0.0509	999.45	997.89	995.97	0.9377	0.8235	0.7406
m1 = 0.1005	1002.85	1001.35	999.03	0.9703	0.8645	0.7786
m1 = 0.1478	1005.4	1003.96	1001.85	1.01	0.8892	0.8095
m1 = 0.1987	1007.93	1006.42	1004.55	1.057	0.9268	0.8407
m1 = 0.2532	1010.59	1009.02	1007.24	1.11	0.9692	0.8758
m1 = 0.3009	1013.05	1011.32	1009.49	1.153	1.009	0.9088
m1 = 0.3497	1015.5	1013.84	1011.74	1.199	1.051	0.9404
m1 = 0.4013	1018.26	1016.55	1014.3	1.247	1.097	0.9772
m1 = 0.4514	1021.07	1019.24	1016.92	1.292	1.141	1.013
m1 = 0.5008	1023.74	1022.03	1019.52	1.337	1.181	1.046
m1 = 0.5492	1026.44	1024.55	1022.06	1.383	1.224	1.083
m1 = 0.6024	1029.39	1027.42	1024.91	1.432	1.268	1.123
m1 = 0.6506	1031.86	1029.91	1027.47	1.479	1.309	1.163
m1 = 0.7603	1037.45	1035.1	1032.83	1.588	1.405	1.249
m1 = 0.7986	1039.18	1036.89	1034.62	1.631	1.442	1.283
m1 = 0.9023	1043.64	1041.09	1038.92	1.736	1.535	1.373
m1 = 0.9974	1047.35	1044.52	1042.51	1.838	1.623	1.448
m1 = 1.199	1054.63	1052.23	1049.68	2.08	1.81	1.617

CN1CCCC1=O.Cc1ccc(S(=O)(=O)O)cc1 [1-methyl-2-pyrrolidinone p-toluenesulfonate] + O
Conditions	mass density, 298.15 K [kg/m3]	mass density, 303.15 K [kg/m3]	mass density, 308.15 K [kg/m3]	viscosity, 298.15 K [mPa·s]	viscosity, 303.15 K [mPa·s]	viscosity, 308.15 K [mPa·s]
m1 = 0.0499	999.98	998.53	996.06	0.9405	0.8355	0.7579
m1 = 0.1012	1002.71	1000.47	998.66	0.9707	0.8613	0.7776
m1 = 0.1588	1005.8	1004.01	1002.3	0.9996	0.8905	0.8002
m1 = 0.1983	1007.95	1006.37	1004.65	1.021	0.9097	0.8164
m1 = 0.2691	1011.73	1010.16	1008.34	1.059	0.9445	0.8406
m1 = 0.3004	1013.31	1011.73	1009.85	1.077	0.9602	0.8511
m1 = 0.3421	1015.42	1013.71	1011.83	1.1	0.9826	0.8691
m1 = 0.398	1018.29	1016.41	1014.42	1.13	1.007	0.892
m1 = 0.4495	1020.8	1018.89	1016.77	1.155	1.03	0.9131
m1 = 0.5139	1023.87	1021.88	1019.63	1.191	1.058	0.9369
m1 = 0.6053	1028.17	1026.17	1023.9	1.241	1.099	0.9752
m1 = 0.6615	1030.76	1028.65	1026.41	1.272	1.127	0.9976
m1 = 0.7504	1034.66	1032.58	1030.21	1.319	1.169	1.036
m1 = 0.7605	1035.06	1033	1030.65	1.324	1.173	1.04
m1 = 0.8335	1038.2	1036.01	1033.59	1.366	1.207	1.072
m1 = 0.9023	1041.05	1038.67	1036.34	1.411	1.244	1.106
m1 = 1.007	1045.23	1042.61	1040.36	1.477	1.299	1.161
m1 = 1.201	1052.61	1050.61	1048.17	1.61	1.409	1.266

CN1CCCC1=O.O=S(=O)(O)c1ccccc1 [1-methyl-2-pyrrolidinone benzenesulfonate] + O
Conditions	mass density, 298.15 K [kg/m3]	mass density, 303.15 K [kg/m3]	mass density, 308.15 K [kg/m3]	viscosity, 298.15 K [mPa·s]	viscosity, 303.15 K [mPa·s]	viscosity, 308.15 K [mPa·s]
m1 = 0.0521	1000.25	998.54	996.69	0.9266	0.8213	0.7506
m1 = 0.1042	1003.16	1001.68	999.93	0.9506	0.845	0.7706
m1 = 0.1369	1004.9	1003.46	1001.57	0.9685	0.8602	0.7809
m1 = 0.2057	1008.79	1007.07	1004.83	1.003	0.8912	0.8063
m1 = 0.2512	1011.09	1009.23	1006.69	1.028	0.9109	0.8208
m1 = 0.2984	1013.59	1011.55	1008.84	1.055	0.9313	0.8393
m1 = 0.3556	1016.55	1014.41	1011.59	1.083	0.9567	0.8611
m1 = 0.4028	1018.9	1016.7	1013.74	1.107	0.9774	0.8786
m1 = 0.4537	1021.44	1019.25	1016.36	1.133	1.002	0.8972
m1 = 0.5093	1024.16	1022.14	1019.21	1.16	1.025	0.9174
m1 = 0.6018	1028.61	1026.63	1023.82	1.204	1.065	0.9514
m1 = 0.6492	1030.83	1028.91	1026.28	1.226	1.085	0.9692
m1 = 0.7511	1035.5	1033.54	1030.78	1.277	1.13	1.009
m1 = 0.8129	1038.24	1036.23	1033.29	1.309	1.158	1.034
m1 = 0.871	1040.72	1038.49	1035.54	1.341	1.185	1.059
m1 = 0.9001	1042.02	1039.67	1036.66	1.358	1.198	1.072
m1 = 1.019	1047.01	1044.27	1041.12	1.423	1.257	1.127
m1 = 1.199	1054.33	1052.06	1049.61	1.54	1.358	1.219
